Results reported in US20190239509A1, “METHOD OF CONTROLLING PLANTS” (SYNGENTA PARTICIPATIONS AG, priority 2016, published 2019).

What was measured:
Type in all cases: in vivo
Eleusine indica (ELEIN) = experiment: B3 drilled field trial Brazil, post-emergence, ELEIN; conditions: 28 days after application
Experimental: (§1) Seeds of a variety of test species were used in drilled field trials to look at the control of important weed species present in corn crops as well as the effect on soybean (a volunteer crop in corn). Trials were carried out in Brazil in the summer season and the second season.
(§2) Plot size was 10-15 m^2, and two replicates were carried out per treatment. Plants were treated post-emergence between the 2 and 4 leaf stage. Species tested were Amaranthus retroflexus (AMARE), Ipomoea grandifolia (IAQGR), Digitaria horizontalis (DIGHO), Bidens pilosa (BIDPI), Eleusine indica (ELEIN), Brachiaria decumbens (BRADC), Centrus echinatus (CCHEC), Euphorbia heterophylla (EPPHL), Brachiaria plantaginea (BRAPL) and Glycine max (GLXMA; soybean). Fungicides and insecticides were used as necessary for plant health. The test was evaluated at 28 days after application with 100=total damage to plant and 0=no damage to plant.
(§3) Expected results were calculated using the Colby Formula.

[1] = test system: Brachiaria plantaginea (BRAPL); experiment: B2 drilled field trial Brazil, post-emergence, BRAPL; conditions: 100=total damage, 0=no damage; for BRAPL 9DAA Observed: 9 days after application; for BRAPL 37 DAA Observed: 37 days after application
Experimental: (§4) Seeds of a variety of test species were used in drilled field trials to look at the control of important weed species present in corn crops as well as the effect on soybean (a volunteer crop in corn). Trials were carried out in Brazil in the summer season.
(§5) Plot size was 10-12 m^2, and two replicates were carried out per treatment. Plants were treated post-emergence at the 4 leaf stage. Fungicides and insecticides were used as necessary for plant health. The test was evaluated at 7 and 30 days after application (Amaranthus viridis (AMAVI), Bidens pilosa (BIDPI), Euphorbia heterophylla (EPPHL)) and 9 and 37 days after application (Brachiaria plantaginea (BRAPL) and soybean (Glycine max GLXMA) with 100=total damage to plant and 0=no damage to plant.
as §3

[2] = test system: Brachiaria plantaginea (BRAPL); experiment: B3 drilled field trial Brazil, post-emergence, BRAPL; conditions: Summer season, 28 days after application
Experimental: as §1, §2, §3

[3] = test system: Amaranthus retroflexus (AMARE); experiment: B3 drilled field trial Brazil, post-emergence, AMARE; conditions: 28 days after application, 100=total damage, 0=no damage
Experimental: as §1, §2, §3

Bidens pilosa (BIDPI) = experiment: B2 drilled field trial Brazil, post-emergence, BIDPI; conditions: 100=total damage, 0=no damage; for BIDPI 7DAA Observed: 7 days after application; for BIDPI 30 DAA Observed: 30 days after application
Experimental: as §4, §5, §3

[4] = test system: Ipomoea grandifolia (IAQGR); experiment: B3 drilled field trial Brazil, post-emergence, IAQGR; conditions: 28 days after application
Experimental: as §1, §2, §3

[5] = test system: Euphorbia heterophylla (EPPHL); experiment: B3 drilled field trial Brazil, post-emergence, EPPHL; conditions: Summer season, 28 days after application
Experimental: as §1, §2, §3

[6] = test system: Brachiaria decumbens (BRADC); experiment: B3 drilled field trial Brazil, post-emergence, BRADC; conditions: 28 days after application
Experimental: as §1, §2, §3

SMILES: CCOC1C(O)N(c2cc(C(C)(C)C)on2)C(=O)N1C (stereo not drawn) [Compound 1.4]
- Observed damage (100=total damage to plant, 0=no damage) (Eleusine indica (ELEIN); Second season, 75 g ai/ha): 11
- Observed damage (100=total damage to plant, 0=no damage) (Eleusine indica (ELEIN); Second season, 100 g ai/ha): 11
- Observed damage (100=total damage to plant, 0=no damage) (Eleusine indica (ELEIN); Second season, 150 g ai/ha): 14
- Observed damage (100=total damage to plant, 0=no damage) (Eleusine indica (ELEIN); Summer season, 50 g ai/ha): 18
- Observed damage (100=total damage to plant, 0=no damage) (Eleusine indica (ELEIN); Summer season, 75 g ai/ha): 25
- Observed damage (100=total damage to plant, 0=no damage) (Eleusine indica (ELEIN); Summer season, 100 g ai/ha): 33
- Observed damage (100=total damage to plant, 0=no damage) (Eleusine indica (ELEIN); Summer season, 150 g ai/ha): 53
- BRAPL 9DAA Observed ([1]; 75 g ai/ha): 18
- BRAPL 37 DAA Observed ([1]; 75 g ai/ha): 0
- BRAPL 9DAA Observed ([1]; 100 g ai/ha): 15
- BRAPL 37 DAA Observed ([1]; 100 g ai/ha): 0
- BRAPL 9DAA Observed ([1]; 150 g ai/ha): 23
- BRAPL 37 DAA Observed ([1]; 150 g ai/ha): 0
- Observed damage (100=total damage to plant, 0=no damage) ([2]; 50 g ai/ha): 13
- Observed damage (100=total damage to plant, 0=no damage) ([2]; 75 g ai/ha): 34
- Observed damage (100=total damage to plant, 0=no damage) ([2]; 100 g ai/ha): 30
- Observed damage (100=total damage to plant, 0=no damage) ([2]; 150 g ai/ha): 31
- AMARE Second season Observed ([3]; 50 g ai/ha): 12
- AMARE Summer season Observed ([3]; 50 g ai/ha): 73
- AMARE Second season Observed ([3]; 75 g ai/ha): 14
- AMARE Summer season Observed ([3]; 75 g ai/ha): 80
- AMARE Second season Observed ([3]; 100 g ai/ha): 39
- AMARE Summer season Observed ([3]; 100 g ai/ha): 90
- AMARE Second season Observed ([3]; 150 g ai/ha): 52
- AMARE Summer season Observed ([3]; 150 g ai/ha): 100
- BIDPI 7DAA Observed (Bidens pilosa (BIDPI); 75 g ai/ha): 8
- BIDPI 30 DAA Observed (Bidens pilosa (BIDPI); 75 g ai/ha): 8
- BIDPI 7DAA Observed (Bidens pilosa (BIDPI); 100 g ai/ha): 10
- BIDPI 30 DAA Observed (Bidens pilosa (BIDPI); 100 g ai/ha): 13
- BIDPI 7DAA Observed (Bidens pilosa (BIDPI); 150 g ai/ha): 28
- BIDPI 30 DAA Observed (Bidens pilosa (BIDPI); 150 g ai/ha): 20
- Observed damage (100=total damage to plant, 0=no damage) ([4]; Second season, 50 g ai/ha): 0
- Observed damage (100=total damage to plant, 0=no damage) ([4]; Second season, 75 g ai/ha): 3
- Observed damage (100=total damage to plant, 0=no damage) ([4]; Second season, 100 g ai/ha): 36
- Observed damage (100=total damage to plant, 0=no damage) ([4]; Second season, 150 g ai/ha): 69
- Observed damage (100=total damage to plant, 0=no damage) ([4]; Summer season, 50 g ai/ha): 33
- Observed damage (100=total damage to plant, 0=no damage) ([4]; Summer season, 75 g ai/ha): 38
- Observed damage (100=total damage to plant, 0=no damage) ([4]; Summer season, 100 g ai/ha): 68
- Observed damage (100=total damage to plant, 0=no damage) ([4]; Summer season, 150 g ai/ha): 100
- Observed damage (100=total damage to plant, 0=no damage) ([5]; 50 g ai/ha): 38
- Observed damage (100=total damage to plant, 0=no damage) ([5]; 75 g ai/ha): 58
- Observed damage (100=total damage to plant, 0=no damage) ([5]; 100 g ai/ha): 46
- Observed damage (100=total damage to plant, 0=no damage) ([5]; 150 g ai/ha): 52
- Observed damage (100=total damage to plant, 0=no damage) ([6]; Second season, 50 g ai/ha): 13
- Observed damage (100=total damage to plant, 0=no damage) ([6]; Second season, 75 g ai/ha): 21
- Observed damage (100=total damage to plant, 0=no damage) ([6]; Second season, 100 g ai/ha): 25
- Observed damage (100=total damage to plant, 0=no damage) ([6]; Second season, 150 g ai/ha): 43
- Observed damage (100=total damage to plant, 0=no damage) ([6]; Summer season, 50 g ai/ha): 18
- Observed damage (100=total damage to plant, 0=no damage) ([6]; Summer season, 75 g ai/ha): 28
- Observed damage (100=total damage to plant, 0=no damage) ([6]; Summer season, 100 g ai/ha): 25
- Observed damage (100=total damage to plant, 0=no damage) ([6]; Summer season, 150 g ai/ha): 30
